The target of one series is rat brain A1-receptors. The settings on record: prior work; cited from earlier work.
The next series addresses T1, A2-adenosine receptors (Rattus norvegicus, UniProt P30543).
T1 construct: adenosine receptors in rat striatal membranes were measured as described; from tissue; host or cells: rat striatal membranes
Nature of the series: Competitive binding assay at A2 receptors ([3H]CGS21680). The settings on record: [3H]CGS21680, rat striatum; read-out: Ki at central rat receptors, A2. The protocol: The Ki values (in nM) for A1 and A2 binding in rat striatum are presented in Table 4 with the relative selectivities expressed as the ratio of Ki values. […] Table 4 also indicates the synthesis method used for each compound therein.
(§1) A1 ligand = [^3 H]RPIA, A2 ligand = [^3 H]CGS21680
(§2) Inhibition of binding by a range of concentrations of an adenosine derivative was assessed in triplicate in at least three separate experiments. At least seven different concentrations spanning three orders of magnitude, adjusted appropriate for the IC50 of each compound were used. IC50 values Ci/mmol) or [^3 H]CGS21680. Inhibition of [^3 H]NECA binding of to A2 -adenosine receptors in rat striatal membranes were measured as described, except that 5 mM theophylline was used to define non-specific binding. N^6 -Cyclopentyladenosine was present at 50 nM to inhibit binding of the ligand at A1 -adenosine receptors. IC50 values were converted to Ki -values as described.

The next series deals with T2, A1-adenosine receptors (Rattus norvegicus, UniProt P25099).
T2 construct: adenosine receptors in rat cerebral cortex membranes was assayed as described; from tissue; b141 says rat striatum
T2 sequence (P25099 1-326): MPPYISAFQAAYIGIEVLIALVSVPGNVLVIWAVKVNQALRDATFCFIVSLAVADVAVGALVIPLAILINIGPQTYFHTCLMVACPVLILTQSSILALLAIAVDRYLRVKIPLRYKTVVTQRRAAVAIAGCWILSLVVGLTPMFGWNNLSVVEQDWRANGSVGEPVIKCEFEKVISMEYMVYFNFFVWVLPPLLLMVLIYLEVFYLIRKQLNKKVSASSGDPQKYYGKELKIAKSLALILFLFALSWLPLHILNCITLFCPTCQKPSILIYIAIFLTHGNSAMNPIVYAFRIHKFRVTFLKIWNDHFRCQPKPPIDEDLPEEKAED
Nature of the series: Competitive binding assay at A1 receptors ([3H]RPIA). As for the experimental part:
Table 4 also indicates the synthesis method used for each compound therein.
as §1, §2

Series [1] can be described thus: Solubility of analogs in pH 7.2 phosphate buffer. The format is physicochemical. To be noted: aqueous buffer; pH 7.2 phosphate buffer with DMSO, 2-3 h room temperature, absorbance at 310 nm, mean of 3. The protocol: The method for determining the solubilities of the xanthines is detailed in the Experimental Section below.
Solubility of Analogs. To 675 uL of pH 7.2 phosphate buffer was added 25 uL of a DMSO solution (approx. 10 mM) of the xanthine to be assayed. This was stirred for one minutes by a vortex mixer then left at room temperature for 2-3 hours. In each case (except where noted) a fine precipitate resulted which was collected by centrifugation at the end of the waiting period. After the dissolution period, a 100 uL aliquot of the supernatant was added to 1.0 mL of methanol and the absorbance measured at 310 nm using an extinction coefficient of 28,180 for calculating the concentration. Each xanthine was assayed 3 times and the concentration represent the averages of these 3 determinations.

≈ marks a conversion by molar mass, not a printed value.

T1 sequence (P30543 whole entry): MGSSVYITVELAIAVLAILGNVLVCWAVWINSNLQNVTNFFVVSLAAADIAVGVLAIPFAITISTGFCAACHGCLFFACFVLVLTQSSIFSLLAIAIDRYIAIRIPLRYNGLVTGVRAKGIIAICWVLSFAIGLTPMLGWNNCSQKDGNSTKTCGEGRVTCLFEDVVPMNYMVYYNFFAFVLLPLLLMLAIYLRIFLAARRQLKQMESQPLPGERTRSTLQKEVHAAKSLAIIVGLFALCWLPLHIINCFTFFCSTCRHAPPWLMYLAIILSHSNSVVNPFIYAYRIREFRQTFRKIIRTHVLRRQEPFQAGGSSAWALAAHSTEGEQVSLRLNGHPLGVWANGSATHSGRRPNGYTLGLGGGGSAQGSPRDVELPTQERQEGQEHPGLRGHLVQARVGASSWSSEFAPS

Take `CCCn1c(=O)c2[nH]c(-c3ccc(OCC(=O)NCCNC(=S)Nc4cccc(N=C=S)c4)cc3)nc2n(CCC)c1=O` [Compound 7]: the Ki (as a rule, a dissociation constant, usually derived from enzyme kinetics or from competition with a known ligand) is 2.4 nM at rat brain A1-receptors; 343 nM at A2-adenosine receptors; 2.39 ± 0.35 nM on A1-adenosine receptors ([3H]RPIA, rat brain membranes, read-out: Ki at central rat receptors, A1). Besides, the A2/A1 ratio at A1-adenosine receptors (ratio of Ki values A2/A1) was 144. Moreover, in series [1], the solubility (as a rule, how much of the substance goes into solution per volume) stood at 90.1 ± 0.56 µM (≈ 55.9 µg/mL).
As to `CCCn1c(=O)c2[nH]c(-c3ccc(OCC(=O)NCCN)cc3)nc2n(CCC)c1=O` [XAC, 8-[4-[[[[(2-aminoethyl)-amino]carbonyl]methyl]oxy]phenyl]-1,3-dipropylxanthine], at rat brain A1-receptors, the Ki is 1.2 nM.

Values taken from patent US5310916A, “Trifunctional agents useful as irreversible inhibitors of A1-adenosine receptors” (The United States of America as represented by the …, priority 1990, dated 1994).
